# Source: PMC10046946, “Novel Phthalic-Based Anticancer Tyrosine Kinase Inhibitors: Design, Synthesis and Biological Activity” (Current Issues in Molecular Biology, 2023)
# Entries after “also recorded” stand apart in the source; their conditions may differ.
# Columns and labels:
# [1] = tested on: K562 (chronic myelogenous leukemia); assay: MTT cell proliferation assay, K562; assay type: cell-based; conditions: Homo sapiens, K562, 72 h of exposition, read-out: Anti-proliferative activity IC50, K562
# In short: (§1)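 IC50 values come from an MTT proliferation assay; sorafenib, nilotinib and lapatinib served as reference standards.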
# [2] = tested on: HL-60 (promyelocytic leukemia); assay: MTT cell proliferation assay, HL-60; assay type: cell-based; conditions: Homo sapiens, HL-60, 72 h of exposition, read-out: Anti-proliferative activity IC50, HL-60
# In short: as §1
# [3] = tested on: MCF-7 (breast adenocarcinoma); assay: MTT cell proliferation assay, MCF-7; assay type: cell-based; conditions: Homo sapiens, MCF7, MCF-7, 72 h of exposition, read-out: Anti-proliferative activity IC50, MCF-7
# In short: as §1
# [4] = tested on: HepG2 (human liver cancer); assay: MTT cell proliferation assay, HepG2; assay type: cell-based; conditions: Homo sapiens, HepG2, 72 h, HepG2, 72 h of exposition, read-out: Anti-proliferative activity IC50, HepG2
# In short: as §1
# A549 (lung carcinoma) = assay: MTT cell proliferation assay, A549; assay type: cell-based; conditions: Homo sapiens, A549, 72 h of exposition, read-out: Anti-proliferative activity IC50, A549
# In short: as §1
# [5] = tested on: OKP-GS (renal cell carcinoma); assay: MTT cell proliferation assay, OKP-GS; assay type: cell-based; conditions: 72 h of exposition, read-out: Anti-proliferative activity IC50, OKP-GS
# In short: as §1
# [6] = tested on: RPMI 1788 cells (B lymphocyte, human); assay: MTT cell proliferation assay, normal RPMI 1788 cells; assay type: cell-based; conditions: normal human lymphoblastoid cells RPMI 1788, 72 h of exposition, read-out: Anti-proliferative activity IC50, RPMI 1788
# In short: as §1
# HER2 = target: T1, HER2 (Homo sapiens, UniProt P04626); assay: ADP-Glo kinase assay, HER2; assay type: biochemical
# T1 construct: purchased Promega
# Method: (§2) The ADP-Glo kinase assay (Promega, Madison, WI, USA) was used to screen compounds 5, 8–10, 14, 17, 19 and 24 for the tyrosine kinase (Kinase Selectivity Profiling System TK-1, Promega, Madison, WI, USA) and serine/threonine kinase (Kinase Selectivity Profiling System Other/CK-1, Promega, Madison, WI, USA) inhibition effects according to the manufacturer’s technical manual. The luminescence data were analyzed as described in our prior work.
# (§3) The selectivity of the potential kinase inhibitor against a specific protein kinase or a specific family of kinases was investigated using the Kinase Selectivity Profiling System TK-1, Other/CK-1 and ADP-Glo™ Kinase assay kit (Promega, Madison, WI, USA).
# HER4 = target: T2, HER4 (Homo sapiens, UniProt Q15303); assay: ADP-Glo kinase assay, HER4; assay type: biochemical
# T2 construct: purchased Promega
# T2 sequence (Q15303 26-1308): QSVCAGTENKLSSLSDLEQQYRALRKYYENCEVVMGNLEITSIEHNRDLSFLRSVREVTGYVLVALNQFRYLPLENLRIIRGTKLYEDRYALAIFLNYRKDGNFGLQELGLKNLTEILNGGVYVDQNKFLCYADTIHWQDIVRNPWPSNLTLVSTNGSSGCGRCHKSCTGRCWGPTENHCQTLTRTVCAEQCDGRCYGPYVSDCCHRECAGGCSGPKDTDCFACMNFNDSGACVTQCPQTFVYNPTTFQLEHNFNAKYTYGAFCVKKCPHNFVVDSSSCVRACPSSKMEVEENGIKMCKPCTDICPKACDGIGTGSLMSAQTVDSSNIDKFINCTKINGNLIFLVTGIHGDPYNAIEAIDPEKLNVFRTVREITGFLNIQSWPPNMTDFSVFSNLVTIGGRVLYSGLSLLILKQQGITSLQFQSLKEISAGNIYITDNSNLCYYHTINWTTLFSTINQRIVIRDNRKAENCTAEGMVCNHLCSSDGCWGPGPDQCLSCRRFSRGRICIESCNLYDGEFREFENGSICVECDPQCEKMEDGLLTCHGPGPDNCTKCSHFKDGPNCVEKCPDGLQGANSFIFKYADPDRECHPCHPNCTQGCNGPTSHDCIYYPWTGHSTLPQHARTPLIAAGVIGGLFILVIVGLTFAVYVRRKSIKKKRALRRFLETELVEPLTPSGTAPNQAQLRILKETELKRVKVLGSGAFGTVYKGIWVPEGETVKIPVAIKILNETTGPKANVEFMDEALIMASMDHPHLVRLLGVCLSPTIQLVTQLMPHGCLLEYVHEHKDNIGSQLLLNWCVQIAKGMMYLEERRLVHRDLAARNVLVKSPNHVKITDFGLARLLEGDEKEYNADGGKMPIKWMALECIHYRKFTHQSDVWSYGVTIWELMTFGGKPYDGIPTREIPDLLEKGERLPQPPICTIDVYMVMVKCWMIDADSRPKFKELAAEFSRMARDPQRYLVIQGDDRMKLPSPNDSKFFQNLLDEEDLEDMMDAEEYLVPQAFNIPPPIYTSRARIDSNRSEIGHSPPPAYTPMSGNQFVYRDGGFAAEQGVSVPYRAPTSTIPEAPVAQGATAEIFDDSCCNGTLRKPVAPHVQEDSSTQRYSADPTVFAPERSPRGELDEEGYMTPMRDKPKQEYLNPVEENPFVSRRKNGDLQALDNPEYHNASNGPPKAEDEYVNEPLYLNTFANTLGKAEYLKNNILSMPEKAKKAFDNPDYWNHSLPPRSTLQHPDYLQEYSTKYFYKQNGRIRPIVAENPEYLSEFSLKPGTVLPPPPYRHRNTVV
# Method: as §2, §3
# [7] = target: T3, IGF1R (insulin-like growth factor 1 receptor) (Homo sapiens, UniProt P08069); assay: ADP-Glo kinase assay, IGF1R; assay type: biochemical
# T3 construct: purchased Promega
# T3 sequence (P08069 31-1367): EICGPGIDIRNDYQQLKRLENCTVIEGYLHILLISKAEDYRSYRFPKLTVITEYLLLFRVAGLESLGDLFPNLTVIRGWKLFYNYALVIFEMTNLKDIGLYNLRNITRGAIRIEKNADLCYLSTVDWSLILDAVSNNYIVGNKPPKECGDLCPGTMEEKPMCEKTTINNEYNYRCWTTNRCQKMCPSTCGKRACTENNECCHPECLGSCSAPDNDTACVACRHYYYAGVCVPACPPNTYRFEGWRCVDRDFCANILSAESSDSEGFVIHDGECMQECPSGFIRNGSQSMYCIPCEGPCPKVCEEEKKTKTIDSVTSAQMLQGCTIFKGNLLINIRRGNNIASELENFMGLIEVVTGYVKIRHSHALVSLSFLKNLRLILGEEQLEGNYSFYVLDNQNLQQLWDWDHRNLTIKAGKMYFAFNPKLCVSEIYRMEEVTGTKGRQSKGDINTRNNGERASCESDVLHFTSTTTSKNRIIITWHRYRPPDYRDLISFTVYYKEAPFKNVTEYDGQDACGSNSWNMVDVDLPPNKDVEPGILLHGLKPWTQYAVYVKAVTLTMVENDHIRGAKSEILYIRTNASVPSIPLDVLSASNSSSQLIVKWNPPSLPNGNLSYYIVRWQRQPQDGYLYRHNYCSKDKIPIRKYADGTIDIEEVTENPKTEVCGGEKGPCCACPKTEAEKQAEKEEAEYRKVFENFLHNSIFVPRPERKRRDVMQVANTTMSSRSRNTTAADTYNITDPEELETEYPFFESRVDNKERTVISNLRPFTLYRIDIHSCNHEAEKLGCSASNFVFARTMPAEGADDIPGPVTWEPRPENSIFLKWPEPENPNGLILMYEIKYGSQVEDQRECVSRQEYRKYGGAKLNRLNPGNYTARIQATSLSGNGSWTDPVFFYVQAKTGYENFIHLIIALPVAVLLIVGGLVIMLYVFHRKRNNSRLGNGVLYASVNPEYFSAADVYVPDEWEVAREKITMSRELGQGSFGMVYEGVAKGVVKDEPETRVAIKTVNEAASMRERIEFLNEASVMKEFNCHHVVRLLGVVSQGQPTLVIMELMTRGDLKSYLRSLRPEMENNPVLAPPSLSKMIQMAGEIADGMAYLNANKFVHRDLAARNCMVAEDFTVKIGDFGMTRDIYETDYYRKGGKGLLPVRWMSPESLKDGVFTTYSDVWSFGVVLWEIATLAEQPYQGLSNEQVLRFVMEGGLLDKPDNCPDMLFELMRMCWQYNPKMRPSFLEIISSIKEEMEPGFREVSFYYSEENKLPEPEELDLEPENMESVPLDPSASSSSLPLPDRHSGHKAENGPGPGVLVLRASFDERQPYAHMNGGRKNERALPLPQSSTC
# Method: as §2, §3
# InsR (insulin receptor) = target: T4, InsR (insulin receptor) (Homo sapiens, UniProt P06213); assay: ADP-Glo kinase assay, InsR; assay type: biochemical
# T4 construct: purchased Promega
# Method: as §2, §3
# PDGFRα = target: T5, PDGFRα (Homo sapiens, UniProt P16234); assay: ADP-Glo kinase assay, PDGFRα; assay type: biochemical
# T5 construct: purchased Promega
# T5 sequence (P16234 24-1089): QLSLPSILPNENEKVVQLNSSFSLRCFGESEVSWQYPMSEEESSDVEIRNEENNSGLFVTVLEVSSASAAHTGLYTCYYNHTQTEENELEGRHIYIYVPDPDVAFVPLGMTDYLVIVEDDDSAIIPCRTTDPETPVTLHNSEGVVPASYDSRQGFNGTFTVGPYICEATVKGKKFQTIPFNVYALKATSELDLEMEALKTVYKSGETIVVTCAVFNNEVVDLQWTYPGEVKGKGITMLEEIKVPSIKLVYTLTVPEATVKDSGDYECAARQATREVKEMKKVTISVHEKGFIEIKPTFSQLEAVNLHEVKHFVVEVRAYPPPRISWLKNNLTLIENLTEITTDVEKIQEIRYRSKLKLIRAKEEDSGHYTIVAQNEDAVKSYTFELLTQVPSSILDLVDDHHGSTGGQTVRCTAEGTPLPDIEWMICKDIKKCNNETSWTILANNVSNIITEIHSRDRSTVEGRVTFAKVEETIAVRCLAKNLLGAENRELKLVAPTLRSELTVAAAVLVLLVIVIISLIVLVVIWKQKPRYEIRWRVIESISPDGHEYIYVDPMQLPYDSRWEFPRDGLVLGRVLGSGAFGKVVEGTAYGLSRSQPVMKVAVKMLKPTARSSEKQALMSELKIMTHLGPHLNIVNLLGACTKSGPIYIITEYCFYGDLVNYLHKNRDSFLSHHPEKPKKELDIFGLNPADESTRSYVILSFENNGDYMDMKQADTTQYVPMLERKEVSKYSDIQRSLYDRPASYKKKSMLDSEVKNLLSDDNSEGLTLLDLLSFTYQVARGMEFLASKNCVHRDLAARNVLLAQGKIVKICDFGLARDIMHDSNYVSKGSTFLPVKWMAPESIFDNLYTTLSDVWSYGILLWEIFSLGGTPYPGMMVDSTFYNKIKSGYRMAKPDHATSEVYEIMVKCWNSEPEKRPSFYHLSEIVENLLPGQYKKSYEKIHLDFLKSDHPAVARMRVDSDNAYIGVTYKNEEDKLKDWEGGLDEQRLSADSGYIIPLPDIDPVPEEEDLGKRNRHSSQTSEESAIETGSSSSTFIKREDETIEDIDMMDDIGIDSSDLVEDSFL
# In short: (§4)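 Inhibition is reported from ADP-Glo luminescence, which quantifies ADP generated by the kinase reaction; the enzymes came from a tyrosine kinase selectivity profiling system used under standard kit conditions.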
# PDGFRβ = target: T6, PDGFRβ (Homo sapiens, UniProt P09619); assay: ADP-Glo kinase assay, PDGFRβ; assay type: biochemical
# T6 construct: purchased Promega
# T6 sequence (P09619 33-1106): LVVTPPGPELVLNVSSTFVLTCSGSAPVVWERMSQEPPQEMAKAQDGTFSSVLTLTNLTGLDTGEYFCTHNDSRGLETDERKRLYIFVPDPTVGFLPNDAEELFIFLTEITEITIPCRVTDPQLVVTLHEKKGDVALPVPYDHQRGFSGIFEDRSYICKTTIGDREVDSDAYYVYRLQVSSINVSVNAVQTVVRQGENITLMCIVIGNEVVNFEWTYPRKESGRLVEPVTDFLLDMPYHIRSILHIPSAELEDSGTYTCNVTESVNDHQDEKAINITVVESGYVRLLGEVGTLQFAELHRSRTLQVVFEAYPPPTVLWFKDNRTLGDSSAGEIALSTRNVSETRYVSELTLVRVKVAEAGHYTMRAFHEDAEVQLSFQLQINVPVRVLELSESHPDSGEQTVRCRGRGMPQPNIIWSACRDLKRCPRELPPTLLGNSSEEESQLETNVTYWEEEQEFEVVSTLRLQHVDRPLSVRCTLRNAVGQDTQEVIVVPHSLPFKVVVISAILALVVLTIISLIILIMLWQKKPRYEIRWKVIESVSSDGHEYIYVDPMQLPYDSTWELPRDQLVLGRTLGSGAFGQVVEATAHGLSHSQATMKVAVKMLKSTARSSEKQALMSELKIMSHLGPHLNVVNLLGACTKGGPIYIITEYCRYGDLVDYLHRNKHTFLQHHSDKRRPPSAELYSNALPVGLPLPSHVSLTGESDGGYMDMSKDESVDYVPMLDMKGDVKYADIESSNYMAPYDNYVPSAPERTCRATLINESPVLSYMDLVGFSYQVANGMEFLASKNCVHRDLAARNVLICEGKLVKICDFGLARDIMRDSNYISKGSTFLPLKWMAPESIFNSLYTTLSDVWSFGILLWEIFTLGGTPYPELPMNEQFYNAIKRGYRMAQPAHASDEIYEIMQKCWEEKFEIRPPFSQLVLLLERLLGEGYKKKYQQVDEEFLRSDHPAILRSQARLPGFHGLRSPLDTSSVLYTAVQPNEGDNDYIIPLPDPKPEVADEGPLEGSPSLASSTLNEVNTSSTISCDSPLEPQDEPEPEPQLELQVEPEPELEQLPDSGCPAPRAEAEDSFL
# In short: as §4
# K562 cells = assay: Cell cycle analysis (propidium iodide, flow cytometry); assay type: cell-based; conditions: 48 h
# Method: Tumor cells were seeded on a 6-well plate at a density of 400,000 per well for K562. Test compounds 5, 14 and 15 were added at concentrations of 1, 5 and 10 μM in duplicate for 48 h. The methodology and analysis of the obtained data were performed as described in our prior work.
# As shown above, compounds 5, 14 and 15 had significant antiproliferative activities, which is why their influences on the cell cycle and apoptosis level were determined, with the aim of understanding whether these effects are cytostatic or cytotoxic. In the cell cycle experiments, K562 cells were used. […] For the determination of changes in the distribution of cells in the phases of the cell cycle, the widely employed method of staining the cells with propidium iodide was used.
# K562 cell line = assay: ROS determination (DCFH-DA, flow cytometry); assay type: cell-based; conditions: 48 h
# Method: The redox status was assessed using the K562 cell line. […] Then, the cells were washed to remove the 2′,7′-dichlorodihydrofluorescein diacetate by centrifugation at 1000 rpm for 5 min. The measurements were conducted using a Cytomics FC500 Beckman Coulter flow cytometer (FL1 channel for DCF).
# [8] = tested on: cancer cell lines (K562, HL-60, MCF-7, HepG2, A549, OKP-GS); assay: MTT cell proliferation assay, statements over the whole cell line panel; assay type: cell-based; conditions: statement over the cell line panel, studied concentration range up to 50 µM
# Method: Tests to determine the effects of the synthesized compounds on cell viability and the half-maximal inhibitory concentration (IC50) were performed using the MTT assay, as described in our prior work.
# The target compounds 5, 6, 8–12, 14, 15, 17–22 and 24–26 were tested for antiproliferative activity against six cancer cell lines: K562 (chronic myelogenous leukemia), HL-60 (promyelocytic leukemia), MCF-7 (breast adenocarcinoma), HepG2 (human liver cancer), A549 (lung carcinoma) and OKP-GS (renal cell carcinoma). The RPMI 1788 cells (B lymphocyte, human) were used as a control to evaluate the system toxicity of the studied compounds to normal cells. Sorafenib, nilotinib and lapatinib were utilized as reference standards for comparison.
# EGFR = target: T7, EGFR (Homo sapiens, UniProt P00533); assay: ADP-Glo kinase assay, EGFR; assay type: biochemical
# T7 construct: purchased Promega
# KDR (VEGFR-2) = target: T8, KDR (VEGFR-2) (Homo sapiens, UniProt P35968); assay: ADP-Glo kinase assay, KDR; assay type: biochemical
# T8 construct: purchased Promega
# Aurora A = target: T9, Aurora A (Homo sapiens, UniProt O14965); assay: ADP-Glo kinase assay, Aurora A; assay type: biochemical
# T9 construct: purchased Promega
# T9 sequence (O14965 1-403): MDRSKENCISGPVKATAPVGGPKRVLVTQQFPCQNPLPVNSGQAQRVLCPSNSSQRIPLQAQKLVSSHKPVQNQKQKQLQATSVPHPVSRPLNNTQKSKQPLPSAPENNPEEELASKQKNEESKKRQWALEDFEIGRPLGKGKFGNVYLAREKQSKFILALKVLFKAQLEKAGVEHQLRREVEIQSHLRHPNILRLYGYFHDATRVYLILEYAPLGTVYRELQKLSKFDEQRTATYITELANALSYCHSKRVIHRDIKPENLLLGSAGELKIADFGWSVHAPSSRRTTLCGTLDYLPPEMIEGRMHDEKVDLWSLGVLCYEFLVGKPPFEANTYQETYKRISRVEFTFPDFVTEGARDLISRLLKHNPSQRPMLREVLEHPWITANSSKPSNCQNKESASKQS
# Method: as §2, §3
# Aurora B = target: T10, Aurora B (Homo sapiens, UniProt Q96GD4); assay: ADP-Glo kinase assay, Aurora B; assay type: biochemical
# T10 construct: purchased Promega
# T10 sequence (Q96GD4 whole entry): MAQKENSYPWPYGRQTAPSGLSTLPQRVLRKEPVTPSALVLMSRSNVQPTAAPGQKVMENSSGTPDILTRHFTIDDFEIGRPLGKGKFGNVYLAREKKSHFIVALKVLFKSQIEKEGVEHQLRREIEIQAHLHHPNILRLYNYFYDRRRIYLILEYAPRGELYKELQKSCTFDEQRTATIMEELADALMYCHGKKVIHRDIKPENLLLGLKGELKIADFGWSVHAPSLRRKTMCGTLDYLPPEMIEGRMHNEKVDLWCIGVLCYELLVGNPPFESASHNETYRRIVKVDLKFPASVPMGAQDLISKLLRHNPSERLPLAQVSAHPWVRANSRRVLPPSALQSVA
# Method: as §2, §3
Compound,IC50 [1] [µM],IC50 [2] [µM],IC50 [3] [µM],IC50 [4] [µM],IC50 (A549 (lung carcinoma)) [µM],IC50 [5] [µM],IC50 [6] [µM],inhibition at 10 µM (HER2) [%],inhibition at 10 µM (HER4) [%],inhibition at 10 µM [7] [%],inhibition at 10 µM (InsR (insulin receptor)) [%],inhibition at 10 µM (PDGFRα) [%],inhibition at 10 µM (PDGFRβ) [%],Antiproliferative activity (IC50) over the studied cell cultures [8],melting point [°C],other results
"CS(=O)(=O)CCNCc1ccc(-c2ccc3ncnc(Nc4ccc(OCc5cccc(F)c5)c(Cl)c4)c3c2)o1 [Lapatinib, reference compound]",9.62 ± 1.56,10.6 ± 1.02,10.9 ± 0.34,27.1 ± 0.08,18.6 ± 2.65,7.32 ± 2.15,9.31 ± 0.9,76,100,0,0,2,10,,,"Apoptosis, % (cell cycle analysis) (K562 cells; K562, 1 µM): 14.74%; G1, % (K562 cells; K562, 1 µM): 34.47%; G2/M, % (K562 cells; K562, 1 µM): 52.23%; S, % (K562 cells; K562, 1 µM): 13.31%; Apoptosis, % (cell cycle analysis) (K562 cells; K562, 5 µM): 28.92%; G1, % (K562 cells; K562, 5 µM): 31.31%; G2/M, % (K562 cells; K562, 5 µM): 55.68%; S, % (K562 cells; K562, 5 µM): 13.02%; ROS Level, % of Control (K562 cell line; K562, 5 µM): 64.12 % of Control; ROS Level, % of Control (K562 cell line; K562, 10 µM): 72.23 % of Control; ROS Level, % of Control (K562 cell line; K562, 20 µM): 89.07 % of Control; IC50 ([8]; read-out: Antiproliferative activity (IC50) over the studied cell cultures): 2 to 27 µM"
"CNC(=O)c1cc(Oc2ccc(NC(=O)c3cccc(C(=O)Nc4cc(-n5cnc(C)c5)cc(C(F)(F)F)c4)c3)cc2)ccn1 [Compound 11, N1-(3-(4-methyl-1H-imidazol-1-yl)-5-(trifluoromethyl)phenyl)-N3-(4-((2-(methylcarbamoyl)pyridin-4-yl)oxy)phenyl)isophthalamide]",> 50,> 50,> 50,> 50,> 50,26.5 ± 3.65,21.9 ± 0.44,,,,,,,lack of sensitivity of the cancer cells in the studied concentration range,313 to 315,
"Cc1cn(-c2cc(NC(=O)c3ccc(C(=O)Nc4cccc(C(F)(F)F)c4)cc3)cc(C(F)(F)F)c2)cn1 [Compound 17, N1-(3-(4-methyl-1H-imidazol-1-yl)-5-(trifluoromethyl)phenyl)-N4-(3-(trifluoromethyl)phenyl)-terephthalamide]",15.6,> 50,> 50,> 50,> 50,> 50,> 50,13,0,0,0,≤ 20,15,practically did not affect the cell lines’ viability; also recorded: almost no effect on the cell lines’ viability,208 to 210,inhibition at 10 µM (EGFR): 0%; inhibition at 10 µM (KDR (VEGFR-2)): 0%; inhibition at 10 µM (Aurora A): 0%; inhibition at 10 µM (Aurora B): 0%
